According to patent publication US20230303647A1, “CYCLIC CHEMERIN-9 DERIVATIVES” (priority 2020, published 2023):
Where a SMILES comes first, the peptide text is derived from it. Bridges are numbered along the chain shown (N, C = ends). [ ]: non-standard residue; d: D form. PEG4 = NCCOCCOCCOCCOCCC(=O)O; d(hCys) = N[C@H](CCS)C(=O)O

Legend:
in vitro = conditions: human, plasma
Method: Investigation of peptide stability in blood plasma was carried out as described previously. […] Samples taken at the respective time points were added to a solution of 0.1% SDS in ACN/EtOH (1:1). After incubation at −20° C. for 20 min, the supernatant was transferred to a new tube and incubated again at −20° C. for at least 3 h. The solution was filtered by centrifugation using Costar Spin-X tubes (0.22 μm) and the filtrate was analyzed by RP-HPLC on a VariTide RPC. […] Peaks were integrated and the peak containing the intact peptide was normalized to the sample taken at t=0 min (100%).

CMKLR1 [1] = biological target: T1, CMKLR1 (Homo sapiens, UniProt Q99788); test: BRET-based arrestin 3 recruitment assay
T1 sequence (Q99788 1-373): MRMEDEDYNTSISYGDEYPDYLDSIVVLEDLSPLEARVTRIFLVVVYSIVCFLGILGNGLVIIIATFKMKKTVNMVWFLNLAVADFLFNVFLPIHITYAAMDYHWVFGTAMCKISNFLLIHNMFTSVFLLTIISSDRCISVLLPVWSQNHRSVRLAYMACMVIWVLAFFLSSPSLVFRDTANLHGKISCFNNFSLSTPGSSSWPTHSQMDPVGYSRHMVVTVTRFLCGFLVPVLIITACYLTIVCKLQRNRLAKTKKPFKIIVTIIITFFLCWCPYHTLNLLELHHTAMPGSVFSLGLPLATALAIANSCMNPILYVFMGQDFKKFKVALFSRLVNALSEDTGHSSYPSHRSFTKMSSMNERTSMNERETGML
Method: HEK293 cells were transiently transfected using 75 cm^2 cell culture flasks with cell monolayers (confluency of ˜80%). Plasmid DNA of the C-terminally eYFP tagged human CMKLR1 and the chimeric G protein GαΔ6qi4myr in a pVitro2 vector (7.8 μg) and Renilla-luciferase 8-tagged Arrestin 3 in pcDNA3 (0.2 μg) and 24 μl MetafectenePro were separately added to 900 μl DMEM/Ham's F12 and incubated for 10 min before unification and incubation at RT for 20 min. […] The plasmid solution was added and cells were incubated overnight before seeding. Cell seeding was carried out in white 96-well polystyrene cell culture microplates, coated with poly-D lysine. […] Afterwards, the cells were incubated overnight at 37° C. The assay was performed under unsterile conditions. […] Afterwards, the cells were stimulated with the peptides in different concentrations (10^−5 to 10^−12 M) dissolved in BRET buffer. 50 μl of the peptide dilution were used for cell stimulation. Buffer without peptide was used as a negative control. […] The values of the negative control were subtracted, non-linear regression was calculated using GraphPad Prism. […] All measurements were performed in four technical replicates, all experiments were repeated at least twice.
The bioluminescence resonance energy transfer (BRET) assay was used to determine the potency of cyclic chemerin variants to recruit arrestin 3 to the CMKLR1 receptor after stimulation. HEK293 cells were transiently transfected with CMKLR1 receptor fused with eYFP fluorophore and Arrestin 3 tagged with Rluc8 luciferase. The transfected cells were seeded, incubated with the luciferase substrate coelenterazine-h and stimulated with different peptide concentrations, resulting in measurable BRET signals.

CMKLR1 [2] = biological target: T1, CMKLR1; test: Fluorescence microscopy of CMKLR1 internalization and arrestin 3 recruitment; assay type: cell-based; parameters: expressed in transfected cells; host or cells: HEK293; conditions: HEK293 cells, 1 μM peptide
Method: Ibidi 15μ-slides were coated with poly D-lysine before cell seeding. Cells were washed with DPBS prior to detachment with 1 ml trypsin/EDTA. […] The cell suspension was diluted to 140,000 cells/200 μl, which were seeded. Incubation was carried out overnight at 37° C. Afterwards, cells were transiently transfected. Plasmid DNA of hCMKLR1_eYFP_GαΔ6qi4myr_pV2 (0.9 μg) and mCherry_Arr3_pcDNA3 (0.1 μg) and 8 μl Lipofectamine were separately added to 100 μl DMEM/Ham's F12 and incubated for 10 min before unification and incubation at RT for 20 min. Incubation was carried out overnight at 37° C. […] The medium was replaced by 200 μl of OptiMEM and the to status was documented. The OptiMEM was then replaced by 200 μl of 1 μM peptide in OptiMEM. Fluorophore excitation was analyzed using different filters, depending on the emission wavelength of the fluorophore and the time of exposure was adjusted to each fluorophore individually. All images were processed identically with the AxioVision software (Carl Zeiss AG, Oberkochen, Germany).
To verify the arrestin-recruitment and analyze the internalization of the CMKLR1 receptor itself, HEK293 cells were used and transiently transfected with fluorescent labeled variants of the two molecules.
FIG. 2: Internalization of CMKLR1 and arrestin 3 recruitment. HEK293 cells expressing the hCMKLR1 (green) and arrestin 3 (Arr3; red) due to transient transfection were used for the internalization studies.

CMKLR1 [3] = biological target: T1, CMKLR1; test: Ca2+ mobilization assay (G protein-mediated signaling)
Method: COS-7 cells were transfected in 75 cm^2 cell culture flasks with 12 μg of the hCMKLR1_eYFP_GαΔ6qi4myr_pV2 plasmid overnight using Metafectene Pro. Transfected cells were seeded in 96 well plates (100 μL cell suspension in DMEM+10% FBS/well) and incubated overnight. The following day, the Ca^2+-mobilization was performed as described previously. […] All experiments were performed in triplicates, each experiment was repeated at least twice. Nonlinear regression was calculated using GraphPad Prism 5.

| Structure (SMILES) | half-life (in vitro) [min] | arrestin 3 recruitment to the CMKLR1 (in words) (CMKLR1 [1]; BRET, compared with chemerin-9) | EC50 (CMKLR1 [1]; EC50, HEK293 cells, CMKLR1-eYFP and Rluc8-arrestin 3, 15 min after agonist addition) [nM] | Emax (CMKLR1 [1]; read-out: Emax [%] ± SEM) [%] | arrestin 3 recruitment (CMKLR1 [2]) | receptor internalization (CMKLR1 [2]; compared to chemerin-9) | EC50 (CMKLR1 [3]) [nM] |
| --- | --- | --- | --- | --- | --- | --- | --- |
| C[C@H](NC(=O)[C@H](Cc1ccccc1)NC(=O)[C@H](CCC(N)=O)NC(=O)CNC(=O)[C@@H]1CCCN1C(=O)[C@H](Cc1ccccc1)NC(=O)[C@H](Cc1ccc(O)cc1)NC(=O)c1ccc(C(=O)O)c(-c2c3ccc(=[N+](C)C)cc-3oc3cc(N(C)C)ccc23)c1)C(=O)N[C@@H](Cc1ccccc1)C(=O)N[C@@H](CO)C(=O)O [$$ 2, Tam-chemerin-9] | < 12 | – | – | – | – | – | – |
| C[C@@H]1NC(=O)[C@H](Cc2ccccc2)NC(=O)[C@H](CCC(N)=O)NC(=O)[C@H](NC(=O)[C@@H]2CCCN2C(=O)[C@H](Cc2ccccc2)NC(=O)[C@H](Cc2ccc(O)cc2)NC(=O)CCOCCOCCOCCOCCN)CCSSC[C@@H](C(=O)O)NC(=O)[C@H](Cc2c[nH]c3ccccc23)NC1=O [$$ 18, EG4-[x4,W8,C9]-chemerin-9] (H-[PEG4]YFP[d(hCys)]QFAWC-OH; disulfide 5-10) | – | accepted | 418 | 69 ± 8 | good arrestin 3 recruitment | slightly lower receptor internalization | 193 |
